Results from patent EP0316592A2, “3'-Fluoro-2',3'-dideoxyuridine, and its therapeutic application” (Stichting REGA V.Z.W., priority 1987, dated 1989).
Like-named read-outs stand apart in the source and are kept apart here.

Assays:
[1] = tested on: C3H cells; assay: Cytotoxicity for C3H cells (alteration of normal cell morphology); assay type: cell-based, mouse
[2] = tested on: MOLT/4F CELL DNA; assay: Incorporation of radiolabelled precursors into Molt/4F cell DNA; assay type: cell-based, human; conditions: for IC50: Homo sapiens, Molt/4F cell DNA, 20-24 hours; for stimulatory effect on (5-3H)dCyd incorporation into DNA: as compared to the control
Procedure: The impact of ddUrd and the 3′-fluoro- and 3′-azido-substituted pyrimidine 2′,3′-dideoxynucleoside analogues on cellular DNA biosynthesis was evaluated by monitoring the effect of these compounds on the incorporation of radio- labelled (1′,2′-³H)dUrd (specific radioactivity 27 Ci/mmol), (methyl-³H)dThd (specific radioactivity […]) and (5-³H)dCyd (specific radioactivity 20 Ci/mmol) into DNA of Molt/4F cells.
The incorporation of radiolabelled precursors into Molt/4F cellular DNA was measured in microtest III plates (96 wells) (Flacon) as previously described (J. Balzarini et al, Mol. Pharmacol. 23, 175-181 (1983)). Shortly, to each well of the microplate were added 10⁵ Molt/4F cells and 0.25 µCi of (1′,2′-³H)dUrd, (methyl³H)dThd or (5-³H)dCyd. The cells were allowed to proliferate for 20-24 hours at 37°C in a humidified CO₂-controlled atmosphere. At the end of this incubation period, the contents of the wells (200 µ1) were brought onto 25-mm glass-fibre filters (type A/E, Gelman Instrument Company, Ann Arbor, Mich., USA) and washed twice with cold phosphate-buffered saline, twice with cold 10% trichloroacetic acid (TCA), twice with cold 5% TCA, once with ethanol and once with ether. The filters were then assayed for radioactivity in a toluene-based scintillant.

[3] = biological target: T1, bacterial thymidine phosphorylase (Escherichia coli, UniProt P07650); assay: Phosphorolytic cleavage by dThd phosphorylase; assay type: biochemical; conditions: for susceptibility to phosphorolysis by dThd phosphorylase (in words): purified bacterial dThd phosphorylase; for Initial velocity of phosphorolysis: 25°C, 0.1 M sodium phosphate buffer, pH 7.0, N.D. = not detectable with 25 units of enzyme
T1 construct: purchased Sigma Chemical Co., St. Louis, MO
Procedure: Phosphorolytic cleavage of the test compounds was assessed using purified bacterial dThd phosphorylase (Sigma Chemical Co., St. Louis, MO) with the aid of a Beckman spectrophotometer UV/Vis 5200; the absorbance change during the enzyme reaction was continuously monitored at 25°C at the wavelength where the difference of absorption between the nucleoside and its free base was maximal. The reaction mixtures for all the assays consisted of enzyme and non-satura ting concentrations of nucleoside in 0.1 M sodium phosphate buffer, pH 7.0. The initial velocity of phosphorolysis was expressed as nmol/min/enzyme unit.

[4] = tested on: Molt/4F cells; assay: Tritium release from (5-3H)dUrd or (5-3H)dCyd in intact Molt/4F cells; assay type: cell-based; conditions: Homo sapiens
Procedure: Briefly, 10⁷ Molt/4F cells/ml were preincubated with an appropriate amount of test compound for 15 min at 37°C. After this incubation period, radiolabelled (5-³H)dUrd or (5-³H)dCyd (100 µCi/ml; 0.1 µM) were added, and at various times (0, 15, 30, 45, 60 min), 100 µl of the reaction mixture was withdrawn, and mixed with 500 µl of a cold suspension of carbon black (100 mg/ml) in 5% TCA. After centrifugation at 1000 g for 10 min, the supernatants were analysed for radioactivity.

[5] = biological target: T2, Molt/4F dCyd kinase (Homo sapiens, UniProt P27707); assay: Inhibition of dCyd kinase (Lineweaver-Burk); assay type: biochemical; conditions: for Type of inhibition: with respect to dCyd
T2 construct: endogenous in cells; host or cells: Molt/4F cells (sonicated extract, 30-70% ammonium sulfate fraction, dialyzed)
Procedure: ddUrd and the 3′-fluoro- and 3′-azido-substituted pyrimidine 2′,3′-dideoxynucleoside analogues were evaluated for their inhibitory effect against dThd and dCyd kinase.
dThd kinase and dCyd kinase were prepared from exponen tially growing Molt/4F cells, which were first washed (2x) with phosphate-buffered saline at 4° and then homogenized by sonication. The suspensions were clarified by centrifugation at 25,000-27,000 x g for 30 min. The 30-70% (NH₄)₂SO₄ precipitate of the supernatant was resuspended in buffer containing 10 uM potassium phosphate, pH 7.5, 10 mM β-mercaptoethanol and 0.1 M KCl, dialyzed against the same buffer, and used for the dThd kinase and the dCyd kinase assays. In these experiments, (2-¹⁴C)dThd and (U-¹⁴C)dCyd served as the radiolabelled substrates. The apparent Km and Ki values were derived from Lineweaver-Burk plots, using a linear regression analysis program. The assay procedures have been described in detail (J. Balzarini et al, (1983) and J. Balzarini et al, Biochem. Pharmacol. 31, 3673-3682 (1982)).

[6] = tested on: human B- and T-cell lines; assay: Cytostatic effect, pooled over several cell lines; assay type: cell-based; conditions: for IC50: read-out: ID50 (the source's name)
Procedure: All assays were performed in flat bottom Microtest III Plates (96 wells) (Falcon) as previously described by E. De […] et al (Mol. Pharmacol. 19, 321-330 (1981)). Briefly, the cells were suspended in growth medium and added to the microplate wells at a density of 7.5 x 10^4 cells/well (200 μ1) in the presence of varying concentrations of the test compounds. The cells were then allowed to proliferate for 68-72 hours at 37°C in a humidified, CO2-controlled atmosphere. At the end of the incubation period, the cells were counted with a Coulter Counter (Coulter Electronics Ltd., Harpenden Herts, U.K.).

[7] = alteration of normal cell morphology, C3H cells
[8] = read-out: ID50 (1',2'-3H)dUrd incorporation
[9] = read-out: ID50 (5-3H)dCyd incorporation
[10] = read-out: ID50 (methyl-3H)dThd incorporation
[11] = read-out: ID50 tritium release from (5-3H)dCyd
[12] = read-out: ID50 tritium release from (5-3H)dUrd
[13] = Homo sapiens, CEM and Molt/4F cells, range over both compounds and both cell lines
[14] = Homo sapiens, Raji cells, range over both compounds

T2 sequence (P27707 whole entry): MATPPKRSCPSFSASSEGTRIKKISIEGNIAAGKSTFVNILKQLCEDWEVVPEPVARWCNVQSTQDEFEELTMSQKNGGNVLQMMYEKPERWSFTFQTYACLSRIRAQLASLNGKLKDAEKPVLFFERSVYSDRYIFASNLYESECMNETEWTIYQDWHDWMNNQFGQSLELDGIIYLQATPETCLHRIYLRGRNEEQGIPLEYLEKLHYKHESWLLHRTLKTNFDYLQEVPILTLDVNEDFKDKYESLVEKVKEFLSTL
T1 sequence (P07650 whole entry): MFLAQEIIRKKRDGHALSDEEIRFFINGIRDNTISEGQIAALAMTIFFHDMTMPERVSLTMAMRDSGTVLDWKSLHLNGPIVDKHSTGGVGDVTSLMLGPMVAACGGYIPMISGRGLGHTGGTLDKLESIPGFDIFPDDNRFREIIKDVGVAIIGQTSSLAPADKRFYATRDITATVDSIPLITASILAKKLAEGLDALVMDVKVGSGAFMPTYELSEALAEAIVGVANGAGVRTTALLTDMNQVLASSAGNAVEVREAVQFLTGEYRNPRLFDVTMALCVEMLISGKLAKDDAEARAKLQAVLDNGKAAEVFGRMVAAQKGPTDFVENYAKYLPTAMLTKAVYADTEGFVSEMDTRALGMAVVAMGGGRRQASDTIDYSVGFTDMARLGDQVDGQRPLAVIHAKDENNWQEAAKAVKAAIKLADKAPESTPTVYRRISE

Row | Structure (SMILES) | MSV-induced cyto-pathogenicity CD50 [1, 7] | IC50 [2, 8] | IC50 [2, 9] | IC50 [2, 10] | susceptibility to phosphorolysis by dThd phosphorylase (in words) [3] | IC50 [4, 11] | IC50 [4, 12] | Ki/Km ([5]; Km 5.2 to 6.4 µM) | Ki ([5]; substrate (U-14C)dCyd) | Type of inhibition [5] | stimulatory effect on (5-3H)dCyd incorporation into DNA ([2]; at 200 µM) | stimulatory effect on (5-3H)dCyd incorporation into DNA ([2]; at 1000 µM) | IC50 [6, 13] | IC50 [6, 14] | Initial velocity of phosphorolysis [3] | fold higher susceptibility of CEM cells to the cytostatic action than the other cell lines ([6]; CEM versus other cell lines) | IC50 ([6]; the other cell lines (all but CEM)) | MSV-induced cyto-pathogenicity CD50 [1]
1 | CCc1cn([C@H]2C[C@H](N=[N+]=[N-])[C@@H](CO)O2)c(=O)[nH]c1=O [AzddEtUrd, 3′-azido-2′,3′-dideoxy-5-ethyluridine] | >200 µM | > 1000 µM | > 1000 µM | > 1000 µM | no phosphorolytic cleavage whatsoever | > 250 µM | 51 µM |  |  |  |  |  |  |  |  |  |  | 
2 | [N-]=[N+]=N[C@H]1C[C@H](n2ccc(=O)[nH]c2=O)O[C@@H]1CO [AzddUrd, 3′-azido-2′,3′-dideoxyuridine] | >400 µM | 172 µM | 725 µM | > 1000 µM |  | > 250 µM | 20 µM |  |  |  |  |  |  |  |  |  |  | 
3 | Nc1ccn([C@H]2C[C@H](F)[C@@H](CO)O2)c(=O)n1 [FddCyd, 3′-fluoro-2′,3′-dideoxycytidine] | >400 µM | 27.3 µM | > 1000 µM | > 1000 µM | totally resistant |  |  | 63 | 360 µM | competitive | 1.7 fold | 2 fold | 6 to 24 µM | 23 to 95 µM |  |  |  | 
4 | CCc1cn([C@H]2C[C@H](F)[C@@H](CO)O2)c(=O)[nH]c1=O [FddEtUrd, 3′-fluoro-2′,3′-dideoxy-5-ethyluridine] | >400 µM | > 1000 µM | > 1000 µM | > 1000 µM | no phosphorolytic cleavage whatsoever |  | > 250 µM |  |  |  |  |  |  |  |  |  |  | 
5 | O=c1ccn([C@H]2C[C@H](F)[C@@H](CO)O2)c(=O)[nH]1 [FddUrd, 3′-fluoro-2′,3′-dideoxyuridine] | >400 µM | 16 µM | > 1000 µM | > 1000 µM |  | > 250 µM | 126 µM |  |  |  |  |  |  |  | 0.018 nmol/min/unit | 70 fold | > 1000 µM | 
6 | Nc1ccn([C@H]2CC[C@@H](CO)O2)c(=O)n1 [ddCyd, 2′,3′-Dideoxycytidine] | >400 µM | 32 µM | > 1000 µM | 753 µM | totally resistant |  |  |  |  | competitive | 1.7 fold | 2 fold | 6 to 24 µM | 23 to 95 µM |  |  |  | 
7 | CCc1cn([C@H]2CC[C@@H](CO)O2)c(=O)[nH]c1=O [ddEtUrd, 2′,3′-Dideoxy-5-ethyluridine] | >400 µM | > 1000 µM | > 1000 µM | > 1000 µM | no phosphorolytic cleavage whatsoever |  | > 250 µM |  |  |  |  |  |  |  |  |  |  | 
8 | O=c1ccn([C@H]2CC[C@@H](CO)O2)c(=O)[nH]1 [ddUrd, 2′-3′-dideoxyuridine] |  | > 1000 µM | > 1000 µM | > 1000 µM |  | > 250 µM | > 250 µM |  |  |  |  |  |  |  | 0.270 nmol/min/unit |  |  | >400 µM
